From US20040106148A1, “Polypeptides” (priority 2000, published 2004)
Values joined by “and” are separate entries in the source; they are usually repeats but may differ in a detail not shown here. Equal entries are not always repeated.

Columns and labels:
[1] = target: T1, mouse TAPP2, full length (FL-TAPP2, accession AF286161), wild type, GST fusion (Mus musculus, UniProt Q9ERS5); test: Surface plasmon resonance (BIACore), GST fusion binding to phosphoinositide in supported lipid monolayer; conditions: supported phosphatidylcholine monolayers, 1:1 binding model, NB, no binding detected, read-out: Apparent Kd
T1 construct: made in house; host or cells: human embryonic kidney 293 cells (pEBG-2T)
T1 sequence (Q9ERS5 whole entry, the tested form may be a part): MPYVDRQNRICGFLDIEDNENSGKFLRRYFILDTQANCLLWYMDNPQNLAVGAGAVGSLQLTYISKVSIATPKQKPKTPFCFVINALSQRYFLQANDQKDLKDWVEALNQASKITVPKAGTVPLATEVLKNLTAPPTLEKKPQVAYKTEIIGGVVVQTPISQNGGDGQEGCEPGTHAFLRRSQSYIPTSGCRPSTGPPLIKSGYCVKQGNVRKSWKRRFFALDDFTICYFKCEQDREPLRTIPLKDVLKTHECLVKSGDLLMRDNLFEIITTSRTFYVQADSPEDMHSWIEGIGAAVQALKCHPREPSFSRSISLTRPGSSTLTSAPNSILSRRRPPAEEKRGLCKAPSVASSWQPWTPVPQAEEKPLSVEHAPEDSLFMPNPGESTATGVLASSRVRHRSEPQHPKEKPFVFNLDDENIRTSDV
Procedure: (§1) Expression of GST-PH domains in human embryonic kidney 293 cells. […] For the expression of each construct, twenty 10 cm diameter dishes of 293 cells were cultured and each dish transfected with 5 μg of the pEBG-2T construct, using a modified calcium phosphate method. 36 h post-transfection, the cells were lysed in 1 ml of ice-cold Buffer A, the lysates pooled, centrifuged at 4° C. for 10 min at 13,000×g and the GST-fusion proteins were purified by affinity chromatography on glutathione-Sepharose and stored as described above.
(§2) Cloning TAPP1, TAPP2, FAPP1 and PEPP1. Full length human TAPP1, full length mouse TAPP2, partial mouse TAPP1, partial human TAPP2, and full length human and mouse FAPP1 sequences were deduced by sequencing the EST clones listed in Table 3. […] The constructs used to express full length and deletion mutants of TAPP1 and TAPP2 were generated by PCR, using as a template ESTs encoding full length human TAPP1 (accession number AI216176) and full length mouse TAPP2 (accession number AA111410). […]
(§3) Kinetic analyses of the interactions between the GST PH domain fusions and the polyphosphoinositides were made using surface plasmon resonance based procedures as described previously, with the following modifications. […] Data were analysed using the bimolecular interaction model and the global fitting feature of the BIAevaluation 3 software for several sensorgrams at different protein concentrations. […] The relative binding affinities of each protein relative to the binding of full length GST-TAPP1 to PtdIns(3,4)P2 were also calculated.
(§4) We studied the specificity and affinity of interaction of the PH domains for phosphoinositide lipids using either a “protein-lipid overlay” assay (FIG. 2) or the more quantitative surface plasmon resonance based approach (Table 2). […] For the surface plasmon resonance based assay, the apparent Kd values of the GST PH domain fusion proteins resulting from their interaction with a supported lipid monolayer containing a low mole fraction of phosphoinositide, was determined (Table 2).

[2] = target: T2, human TAPP1, full length (FL-TAPP1, accession AF286160), wild type, GST fusion (Homo sapiens, UniProt Q9HB21, T320A); test: as above; conditions: supported phosphatidylcholine monolayers, 1:1 binding model, NB, no binding detected, read-out: Apparent Kd
T2 construct: made in house; host or cells: human embryonic kidney 293 cells (pEBG-2T)
T2 sequence (Q9HB21 whole entry T320A, the tested form may be a part): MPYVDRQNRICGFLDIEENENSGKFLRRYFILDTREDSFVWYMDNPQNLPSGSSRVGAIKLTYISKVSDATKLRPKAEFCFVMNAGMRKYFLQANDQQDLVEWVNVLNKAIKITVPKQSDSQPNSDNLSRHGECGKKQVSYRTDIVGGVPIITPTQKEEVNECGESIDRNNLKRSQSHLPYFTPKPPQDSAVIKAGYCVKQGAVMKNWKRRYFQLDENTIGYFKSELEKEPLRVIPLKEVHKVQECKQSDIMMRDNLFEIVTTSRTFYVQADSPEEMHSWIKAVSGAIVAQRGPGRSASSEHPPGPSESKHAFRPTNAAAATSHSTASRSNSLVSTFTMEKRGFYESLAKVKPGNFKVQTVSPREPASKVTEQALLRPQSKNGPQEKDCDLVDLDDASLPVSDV
Procedure: as §1, §2, §3, §4

[3] = target: T3, human TAPP1, full length, mutant R28L (FL-TAPP1 [R28L]), GST fusion (Homo sapiens, UniProt Q9HB21, R28L/T320A); test: as above; conditions: supported phosphatidylcholine monolayers, 1:1 binding model, read-out: Apparent Kd
T3 construct: wild type and mutant forms of full length (FL); made in house; host or cells: human embryonic kidney 293 cells (pEBG-2T)
T3 sequence (Q9HB21 whole entry R28L/T320A, the tested form may be a part): as the sequence (Q9HB21 whole entry T320A, the tested form may be a part) above, with R28L counted along it
Procedure: as §1, §2, §3, §4

[4] = target: human TAPP1 C-terminal PH domain (residues 95 to 404), GST fusion (Homo sapiens, UniProt Q9HB21); test: Protein-lipid overlay; type: binding; conditions: protein-lipid overlay (FIG. 2)
Sequence of human TAPP1 C-terminal PH domain (residues 95 to 404), GST fusion (Q9HB21 95-404): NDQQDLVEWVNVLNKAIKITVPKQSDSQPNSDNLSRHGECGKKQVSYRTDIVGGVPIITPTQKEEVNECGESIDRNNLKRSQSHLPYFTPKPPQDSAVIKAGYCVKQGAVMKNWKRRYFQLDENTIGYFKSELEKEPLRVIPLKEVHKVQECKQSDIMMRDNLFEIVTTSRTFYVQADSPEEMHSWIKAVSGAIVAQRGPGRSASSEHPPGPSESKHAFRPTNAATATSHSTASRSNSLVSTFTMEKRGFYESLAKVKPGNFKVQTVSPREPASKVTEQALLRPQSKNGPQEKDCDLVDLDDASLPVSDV
Procedure: FIG. 2. Phosphoinositide binding properties of the novel PH domains. The ability of the indicated GST fusion proteins to bind a variety of phosphoinositides was analysed using a protein-lipid overlay. Serial dilutions of the indicated phosphoinositides (100 pmol, 50 pmol, 25 pmol, 12.5 pmol, 6.3 pmol, 3.1 pmol and 1.6 pmol) were spotted onto a nitrocellulose membranes which were then incubated with the purified GST fusion proteins. The membranes were washed and the GST-fusion proteins bound to the membrane by virtue of their interaction with lipid were detected using a GST antibody. A representative of at least 3 separate experiments carried out is shown.
FIG. 4. Comparison of the phosphoinositide binding properties of the N-terminal and C-terminal PH domains of TAPP1 and TAPP2. The ability of wild type and mutant forms of full length (FL) and isolated N-terminal (NT) and C-terminal (CT) PH domains of TAPP1 and TAPP2 GST-fusion proteins to interact with phosphoinositides were analysed using a protein-lipid overlay. Serial dilutions of the indicated phosphoinositides (100 pmol, 50 pmol, 25 pmol, 12.5 pmol, 6.3 pmol, 3.1 pmol and 1.6 pmol) were spotted onto a nitrocellulose membrane which was then incubated with the indicated purified GST fusion proteins. The membranes were washed and the GST-fusion proteins bound to the membrane by virtue of their interactions with lipid were detected using a GST antibody. A representative experiment of three is shown. The isolated N-terminal PH domain of human TAPP1 comprises residues 1 to 147, the isolated C-terminal PH domain of human TAPP1 comprises residues 95 to 404, the isolated N-terminal PH domain of mouse TAPP2 comprises residues 1 to 131 and the isolated C-terminal PH of mouse TAPP2 comprises residues 174 to 425.
Protein-Lipid overlay. To assess the phosphoinositide binding properties of each PH domain, a protein-lipid overlay assay was performed using the GST fusion proteins as described previously. […] The membrane was blocked in 3% (by mass) fatty acid-free BSA in TBST (50 mM Tris/HCl pH 7.5, 150 mM NaCl and 0.1% Tween-20 (by vol) for lh. The membrane was then incubated overnight at 4° C. with gentle agitation in the same solution containing 0.2 μg/ml of the indicated GST fusion protein. The membranes were washed 6 times over 30 min in TBST and then incubated for 1 h with 1/1000 dilution of anti-GST monoclonal antibody (Sigma). The membranes were washed as before, then incubated for 1 h with 1/5000 dilution of anti-mouse-HRP conjugate (Pierce). Finally, the membranes were washed 12 times over 1 h in TBST and the GST-fusion protein bound to the membrane by virtue of its interaction with phospholipid was detected by enhanced chemiluminescence.

For `CCCCCCCCCCCCCCCC(=O)OC[C@H](COP(=O)(O)O[C@H]1[C@H](O)[C@@H](O)[C@H](OP(=O)(O)O)[C@@H](OP(=O)(O)O)[C@H]1O)OC(=O)CCCCCCCCCCCCCCC` [PtdIns(3,4)P2], the Kd [1] was 30 nM, the Kd [2] was 5 nM and ~5 nM and the Kd [3] was 28 nM. The phosphoinositide binding [4] was “interacted”.
